Source: PubChem BioAssay (NCI)
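Here, GI50 denotes the concentration required for 50% inhibition of growth. TGI marks complete inhibition of growth.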

Legend:
Assay in all cases: NCI tumour cell line growth inhibition, 384-well format
786-0 renal = tested on: 786-0 renal
A498 renal = tested on: A498 renal
A549 NSCLC = tested on: A549 NSCLC
ACHN renal = tested on: ACHN renal
BT-549 breast = tested on: BT-549 breast
CAKI-1 renal = tested on: CAKI-1 renal
DU-145 prostate = tested on: DU-145 prostate
EKVX NSCLC = tested on: EKVX NSCLC
HCC-2998 colon = tested on: HCC-2998 colon
HCT-116 colon = tested on: HCT-116 colon
HCT-15 colon = tested on: HCT-15 colon
HL-60(TB) leukemia = tested on: HL-60(TB) leukemia
HOP-62 NSCLC = tested on: HOP-62 NSCLC
HOP-92 NSCLC = tested on: HOP-92 NSCLC
HS 578T breast = tested on: HS 578T breast
HT29 colon = tested on: HT29 colon
IGROV1 ovarian = tested on: IGROV1 ovarian
K-562 leukemia = tested on: K-562 leukemia
KM12 colon = tested on: KM12 colon
LOX IMVI melanoma = tested on: LOX IMVI melanoma
M14 melanoma = tested on: M14 melanoma
MALME-3M melanoma = tested on: MALME-3M melanoma
MCF7 breast = tested on: MCF7 breast
MDA-MB-231 breast = tested on: MDA-MB-231 breast
MDA-MB-435 melanoma = tested on: MDA-MB-435 melanoma
MDA-MB-468 breast = tested on: MDA-MB-468 breast
MOLT-4 leukemia = tested on: MOLT-4 leukemia
NCI-H226 lung = tested on: NCI-H226 lung
NCI-H23 lung = tested on: NCI-H23 lung
NCI-H322M lung = tested on: NCI-H322M lung
NCI-H460 NSCLC = tested on: NCI-H460 NSCLC
NCI-H522 lung = tested on: NCI-H522 lung
NCI/ADR-RES ovarian = tested on: NCI/ADR-RES ovarian
OVCAR-3 ovarian = tested on: OVCAR-3 ovarian
OVCAR-4 ovarian = tested on: OVCAR-4 ovarian
OVCAR-5 ovarian = tested on: OVCAR-5 ovarian
OVCAR-8 ovarian = tested on: OVCAR-8 ovarian
PC-3 prostate = tested on: PC-3 prostate
RPMI-8226 leukemia = tested on: RPMI-8226 leukemia
RXF 393 renal = tested on: RXF 393 renal
SF-268 CNS = tested on: SF-268 CNS
SF-295 CNS = tested on: SF-295 CNS
SF-539 CNS = tested on: SF-539 CNS
SK-MEL-28 melanoma = tested on: SK-MEL-28 melanoma
SK-MEL-5 melanoma = tested on: SK-MEL-5 melanoma
SK-OV-3 ovarian = tested on: SK-OV-3 ovarian
SN12C renal = tested on: SN12C renal
SNB-19 CNS = tested on: SNB-19 CNS
SNB-75 CNS = tested on: SNB-75 CNS
SW-620 colon = tested on: SW-620 colon
T-47D breast = tested on: T-47D breast
TK-10 renal = tested on: TK-10 renal
U251 glioblastoma = tested on: U251 glioblastoma
UACC-257 melanoma = tested on: UACC-257 melanoma
UACC-62 melanoma = tested on: UACC-62 melanoma
UO-31 renal = tested on: UO-31 renal
CCRF-CEM leukemia = tested on: CCRF-CEM leukemia
COLO 205 colon = tested on: COLO 205 colon
SR leukemia = tested on: SR leukemia

## O=C(Nc1cccc(Cl)c1)Nc1ncc(CCNc2ncnc3ccsc23)s1
786-0 renal
  GI50: 1.97 µM
  TGI: 11.4 µM
A498 renal
  GI50: 0.839 µM
  TGI: 18.5 µM
A549 NSCLC
  GI50: 0.121 µM
  TGI: 15.4 µM
ACHN renal
  GI50: 1.52 µM
  TGI: 17.3 µM
BT-549 breast
  GI50: 1.07 µM
  TGI: 11.4 µM
CAKI-1 renal
  GI50: 1.15 µM
  TGI: 14.1 µM
DU-145 prostate
  GI50: 4.52 µM
  TGI: 18.1 µM
EKVX NSCLC
  GI50: 1.68 µM
  TGI: 16.1 µM
HCC-2998 colon
  GI50: 10.3 µM
  TGI: 22 µM
HCT-116 colon
  GI50: 0.754 µM
  TGI: 14.5 µM
HCT-15 colon
  GI50: 1.47 µM
  TGI: 15.6 µM
HL-60(TB) leukemia
  GI50: < 0.01 µM
  TGI: 3.63 µM
HOP-62 NSCLC
  GI50: 0.356 µM
  TGI: 11 µM
HOP-92 NSCLC
  GI50: 3.53 µM
  TGI: 18.4 µM
HS 578T breast
  GI50: 0.104 µM
  TGI: 6.01 µM
HT29 colon
  GI50: 2.42 µM
  TGI: 14.5 µM
IGROV1 ovarian
  GI50: 3.39 µM
  TGI: 16 µM
K-562 leukemia
  GI50: 1.34 µM
  TGI: 14.1 µM
KM12 colon
  GI50: 0.118 µM
  TGI: 13.2 µM
LOX IMVI melanoma
  GI50: 1.25 µM
  TGI: 13.8 µM
M14 melanoma
  GI50: 1.79 µM
  TGI: 14.8 µM
MALME-3M melanoma
  GI50: 6.41 µM
  TGI: 19.5 µM
MCF7 breast
  GI50: 1.49 µM
  TGI: 13 µM
MDA-MB-231 breast
  GI50: 8.07 µM
  TGI: 20.8 µM
MDA-MB-435 melanoma
  GI50: 10 µM
  TGI: 21.6 µM
MDA-MB-468 breast
  GI50: 0.0283 µM
  TGI: 0.242 µM
MOLT-4 leukemia
  GI50: < 0.01 µM
NCI-H226 lung
  GI50: 2.94 µM
  TGI: 16.3 µM
NCI-H23 lung
  GI50: 2.59 µM
  TGI: 16 µM
NCI-H322M lung
  GI50: 6.64 µM
  TGI: 19.6 µM
NCI-H460 NSCLC
  GI50: 0.0433 µM
  TGI: 10.6 µM
NCI-H522 lung
  GI50: 0.356 µM
  TGI: 12.1 µM
NCI/ADR-RES ovarian
  GI50: 2.44 µM
  TGI: 11 µM
OVCAR-3 ovarian
  GI50: 0.174 µM
  TGI: 15 µM
OVCAR-4 ovarian
  GI50: 9.02 µM
  TGI: 21.3 µM
OVCAR-5 ovarian
  GI50: 8.83 µM
  TGI: 21.2 µM
OVCAR-8 ovarian
  GI50: 2.2 µM
  TGI: 12 µM
PC-3 prostate
  GI50: 3.15 µM
  TGI: 13.2 µM
RPMI-8226 leukemia
  GI50: 0.308 µM
  TGI: 11.5 µM
RXF 393 renal
  GI50: 0.0169 µM
  TGI: 2.55 µM
SF-268 CNS
  GI50: < 0.01 µM
  TGI: 0.781 µM
SF-295 CNS
  GI50: 2.17 µM
  TGI: 18.1 µM
SF-539 CNS
  GI50: 0.306 µM
  TGI: 14.7 µM
SK-MEL-28 melanoma
  GI50: 10.4 µM
  TGI: 22.2 µM
SK-MEL-5 melanoma
  GI50: 1.08 µM
  TGI: 2.53 µM
SK-OV-3 ovarian
  GI50: 5.02 µM
  TGI: 19 µM
SN12C renal
  GI50: 3.01 µM
  TGI: 18.2 µM
SNB-19 CNS
  GI50: 11.7 µM
  TGI: 24 µM
SNB-75 CNS
  GI50: 4.06 µM
  TGI: 17 µM
SW-620 colon
  GI50: 14.6 µM
  TGI: 27.8 µM
T-47D breast
  GI50: 0.228 µM
  TGI: 2.36 µM
TK-10 renal
  GI50: 9.81 µM
  TGI: 21.6 µM
U251 glioblastoma
  GI50: 7.52 µM
  TGI: 20.7 µM
UACC-257 melanoma
  GI50: 4.81 µM
  TGI: 18.3 µM
UACC-62 melanoma
  GI50: 1 µM
  TGI: 16 µM
UO-31 renal
  GI50: 3.5 µM
  TGI: 19.7 µM

## CC(C)(O)c1ccc(N2CCN(c3nnc(Cc4ccccc4)c4ccccc34)CC2)nc1
786-0 renal
  GI50: 6.92 µM
A549 NSCLC
  GI50: 5.79 µM
BT-549 breast
  GI50: 6.9 µM
CCRF-CEM leukemia
  GI50: 3.83 µM
COLO 205 colon
  GI50: 4.39 µM
DU-145 prostate
  GI50: 5.86 µM
EKVX NSCLC
  GI50: 4.39 µM
HCT-15 colon
  GI50: 7.34 µM
HL-60(TB) leukemia
  GI50: 2.68 µM
  TGI: 5.16 µM
HOP-92 NSCLC
  GI50: 8.09 µM
HT29 colon
  GI50: 9.38 µM
K-562 leukemia
  GI50: 4.85 µM
LOX IMVI melanoma
  GI50: 9.67 µM
M14 melanoma
  GI50: 8.59 µM
MALME-3M melanoma
  GI50: 3.24 µM
MCF7 breast
  GI50: 7.42 µM
MDA-MB-231 breast
  GI50: 3.22 µM
MDA-MB-468 breast
  GI50: 1.62 µM
  TGI: 4.37 µM
MOLT-4 leukemia
  GI50: 2.07 µM
  TGI: 3.86 µM
NCI-H226 lung
  GI50: 6.6 µM
NCI-H23 lung
  GI50: 4.38 µM
NCI-H322M lung
  GI50: 8.82 µM
NCI-H522 lung
  GI50: 6.23 µM
NCI/ADR-RES ovarian
  GI50: 3.02 µM
OVCAR-4 ovarian
  GI50: 3.75 µM
OVCAR-8 ovarian
  GI50: 5.64 µM
PC-3 prostate
  GI50: 9.46 µM
RPMI-8226 leukemia
  GI50: 2.18 µM
  TGI: 5.27 µM
RXF 393 renal
  GI50: 6.29 µM
SF-295 CNS
  GI50: 7.65 µM
SK-MEL-5 melanoma
  GI50: 2.17 µM
  TGI: 4.19 µM
SR leukemia
  GI50: 2.08 µM
  TGI: 5.25 µM
T-47D breast
  GI50: 1.92 µM
  TGI: 6.25 µM
UACC-257 melanoma
  GI50: 5.3 µM
UO-31 renal
  GI50: 6.13 µM
